According to ChEMBL document CHEMBL1201862, “PubChem BioAssay data set” (2004):
Activity calls are given as the source filed them.

Assays:
Type in all cases: functional
[1] = target: T1, Tyrosine-protein phosphatase non-receptor type 7 (Homo sapiens, UniProt P35236)
T1 sequence (P35236 whole entry): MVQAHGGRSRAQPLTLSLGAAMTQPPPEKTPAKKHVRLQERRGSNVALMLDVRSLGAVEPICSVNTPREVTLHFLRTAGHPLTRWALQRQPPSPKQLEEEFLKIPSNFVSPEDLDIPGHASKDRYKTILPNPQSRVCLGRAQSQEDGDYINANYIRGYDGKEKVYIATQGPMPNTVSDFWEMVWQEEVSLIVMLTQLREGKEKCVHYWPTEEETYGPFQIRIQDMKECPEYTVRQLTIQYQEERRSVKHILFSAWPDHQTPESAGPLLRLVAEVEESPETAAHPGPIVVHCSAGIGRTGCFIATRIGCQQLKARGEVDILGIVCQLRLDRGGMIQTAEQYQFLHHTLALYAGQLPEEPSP

[2] = target: T2, Tyrosine-protein phosphatase non-receptor type 22 (Homo sapiens, UniProt Q9Y2R2)
T2 sequence (Q9Y2R2 whole entry): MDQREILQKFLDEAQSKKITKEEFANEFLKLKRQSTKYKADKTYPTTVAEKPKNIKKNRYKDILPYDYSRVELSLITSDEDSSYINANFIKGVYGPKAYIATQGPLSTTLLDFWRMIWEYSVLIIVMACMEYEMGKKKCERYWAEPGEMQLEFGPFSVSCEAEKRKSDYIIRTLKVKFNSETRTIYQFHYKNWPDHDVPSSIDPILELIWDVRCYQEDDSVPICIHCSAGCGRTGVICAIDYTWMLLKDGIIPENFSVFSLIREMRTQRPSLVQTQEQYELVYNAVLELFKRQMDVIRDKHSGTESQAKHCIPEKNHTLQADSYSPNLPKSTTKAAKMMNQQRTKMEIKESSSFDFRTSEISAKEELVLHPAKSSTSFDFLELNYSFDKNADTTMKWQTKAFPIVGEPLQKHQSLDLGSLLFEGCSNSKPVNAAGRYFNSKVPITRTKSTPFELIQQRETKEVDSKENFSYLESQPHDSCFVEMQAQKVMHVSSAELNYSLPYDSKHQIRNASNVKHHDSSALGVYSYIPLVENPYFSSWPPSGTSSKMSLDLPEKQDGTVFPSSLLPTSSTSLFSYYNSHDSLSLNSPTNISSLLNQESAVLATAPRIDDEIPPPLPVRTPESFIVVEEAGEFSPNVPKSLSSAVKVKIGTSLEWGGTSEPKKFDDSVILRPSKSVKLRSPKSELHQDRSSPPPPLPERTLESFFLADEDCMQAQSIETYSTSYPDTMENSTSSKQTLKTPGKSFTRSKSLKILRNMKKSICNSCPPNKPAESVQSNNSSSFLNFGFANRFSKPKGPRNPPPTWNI

[3] = target: T2, Tyrosine-protein phosphatase non-receptor type 22; remark: listed apart in the source
[4] = target: Intestinal-type alkaline phosphatase (Mus musculus, UniProt P24822); assay: PubChem AID 488875
[5] = target: T3, Intestinal-type alkaline phosphatase (Homo sapiens, UniProt P09923); assay: human IAP activators, dose response, biochemical, luminescent, uHTS hits, set 2 (AID 488817);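 also: potency of activators that raise enzyme activity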
[6] = target: T4, Alkaline phosphatase, tissue-nonspecific isozyme (Homo sapiens, UniProt P05186); assay: TNAP enzyme activators, dose response, selectivity assay for human IAP activator project, biochemical, TNAP isozyme, human IAP uHTS hits (AID 488886);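 also: potency of compounds raising TNAP activity as a selectivity check on IAP activators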
T4 sequence (P05186 whole entry): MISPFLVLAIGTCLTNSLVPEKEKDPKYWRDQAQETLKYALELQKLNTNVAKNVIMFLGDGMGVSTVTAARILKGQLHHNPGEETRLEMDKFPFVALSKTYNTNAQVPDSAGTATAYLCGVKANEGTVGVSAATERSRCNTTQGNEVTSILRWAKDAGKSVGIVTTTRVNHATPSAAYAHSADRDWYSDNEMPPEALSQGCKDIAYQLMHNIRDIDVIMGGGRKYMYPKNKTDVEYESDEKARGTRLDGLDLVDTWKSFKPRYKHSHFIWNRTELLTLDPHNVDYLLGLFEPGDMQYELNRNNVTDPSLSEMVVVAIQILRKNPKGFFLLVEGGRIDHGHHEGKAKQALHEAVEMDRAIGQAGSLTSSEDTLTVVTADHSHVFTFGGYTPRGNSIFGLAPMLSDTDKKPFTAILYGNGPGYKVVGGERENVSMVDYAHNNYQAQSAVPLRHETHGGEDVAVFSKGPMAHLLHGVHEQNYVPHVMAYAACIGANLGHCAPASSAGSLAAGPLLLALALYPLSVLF

[7] = target: T3, Intestinal-type alkaline phosphatase; assay: human intestinal alkaline phosphatase activators, dose response, biochemical, luminescence, uHTS hits (AID 463120)

T3 sequence (P09923 whole entry): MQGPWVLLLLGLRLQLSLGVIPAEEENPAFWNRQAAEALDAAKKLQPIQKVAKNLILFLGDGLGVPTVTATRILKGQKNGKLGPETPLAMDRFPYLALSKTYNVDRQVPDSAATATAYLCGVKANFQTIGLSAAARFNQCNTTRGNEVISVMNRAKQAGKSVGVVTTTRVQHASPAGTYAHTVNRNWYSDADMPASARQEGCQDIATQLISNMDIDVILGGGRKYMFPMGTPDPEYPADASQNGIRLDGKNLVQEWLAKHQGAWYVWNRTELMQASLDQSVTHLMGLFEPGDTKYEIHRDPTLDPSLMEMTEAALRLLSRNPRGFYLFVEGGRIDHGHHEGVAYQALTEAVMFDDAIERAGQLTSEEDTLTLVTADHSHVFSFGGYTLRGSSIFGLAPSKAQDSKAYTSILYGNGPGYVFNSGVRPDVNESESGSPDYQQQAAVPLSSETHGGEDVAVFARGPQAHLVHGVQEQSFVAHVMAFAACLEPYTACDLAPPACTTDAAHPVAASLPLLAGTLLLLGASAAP
Intestinal-type alkaline phosphatase (Mus musculus, UniProt P24822), sequence (P24822 whole entry): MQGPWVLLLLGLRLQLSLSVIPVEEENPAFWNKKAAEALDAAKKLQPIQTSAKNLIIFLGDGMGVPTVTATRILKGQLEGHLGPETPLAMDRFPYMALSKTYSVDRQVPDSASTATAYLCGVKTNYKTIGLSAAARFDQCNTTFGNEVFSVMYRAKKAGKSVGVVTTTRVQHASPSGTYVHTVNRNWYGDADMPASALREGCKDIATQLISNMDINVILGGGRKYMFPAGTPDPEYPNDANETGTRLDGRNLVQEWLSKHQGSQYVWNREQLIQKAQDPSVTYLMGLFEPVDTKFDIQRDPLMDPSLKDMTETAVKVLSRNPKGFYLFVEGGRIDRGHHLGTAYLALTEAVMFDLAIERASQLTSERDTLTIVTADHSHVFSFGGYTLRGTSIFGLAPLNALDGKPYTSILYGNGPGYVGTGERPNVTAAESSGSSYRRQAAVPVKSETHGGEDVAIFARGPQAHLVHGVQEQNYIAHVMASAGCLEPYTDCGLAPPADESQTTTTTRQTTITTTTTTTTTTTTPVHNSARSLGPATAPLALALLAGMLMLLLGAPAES

Row | SMILES | IC50 [1] | IC50 [2] | IC50 [3] | EC50 [4] | EC50 [5] | EC50 [6] | EC50 [7]
1 | CC12CCC(=O)N1c1ccccc1C(=O)N2c1ccccc1 (centres undefined) | > 79.4 µM (inactive) | > 79.4 µM (inactive) | > 79.4 µM (inactive) |  |  |  | 
2 | CN(CC(=O)Nc1ccccc1F)CC(=O)Nc1ccc(F)c(F)c1F |  |  |  | > 100 µM (inactive) | 23.6 µM (active) | 23.3 µM (active) | 15.8 µM (active)
3 | N#CC(C(=O)NC1CCCCC1)=C1CCCCC1 | > 79.4 µM (inactive) | > 79.4 µM (inactive) | > 79.4 µM (inactive) |  |  |  | 
4 | Cc1nc(Nc2nc3c(c(=O)[nH]2)CCC3)nc2ccccc12 |  |  |  | > 100 µM (inactive) | 17.6 µM (active) | 26.1 µM (active) | 13.1 µM (active)
